The test system of assay [1] is NCI-H1299. Nature of the assay: Viability of H1299 (p53 null) cells at 4 mM by MTT assay. Conditions: Homo sapiens. The assay is classed as functional. (Formazan colour is commonly taken as a measure of viable cells.)
The subject of assay [2] is NCI-H1299. Kind of assay: Viability of H1299 (p53 null) cells in presence of 4 Gy at 4 mM by MTT assay. The assay is classed as functional. Conditions: Homo sapiens.

One may read the GI50 as the concentration at which growth is held to half of that of the control.

Calls of active or inactive are those of the source. The calls are words filed in the database; no cut-off is given here.

With `CC1(C)OCC2(CO1)C(=O)C1CCN2CC1`, the values for the GI50 in the assay with NCI-H1299 [1] and in the assay with NCI-H1299 [2] were 19.2 µM and 4.74 µM, respectively.
In the case of `O=C1C2CCN(CC2)C1(CO)CO`, the result in the assay with NCI-H1299 [1] was Active.
As for `O=C1C2CCN(CC2)C12COC(c1ccccc1)OC2` (stereo not drawn), the GI50 came out at 17.3 µM in the assay with NCI-H1299 [1] and 4.49 µM in the assay with NCI-H1299 [2].
Regarding `OCC1(CO)C(O)C2CCN1CC2` (stereo not drawn), the outcome in the assay with NCI-H1299 [1] was inactive.
On the same count and under the same terms, with `O=C1CN2CCC1CC2` the entry was “inactive”; with `CC(=O)OCC1(COC(C)=O)C(=O)C2CCN1CC2`, “Active”.

The values are drawn from ChEMBL document CHEMBL1138165, “Structure-activity studies of quinuclidinone analogs as anti-proliferative agents in lung cancer cell lines” (2006).
